Read-outs that look alike come from different tables or passages of the source.
Tested on: Mycosphaerella graminicola; Anamorph: Septoria tritici; Bayer Code SEPTTR
Experiment: Leaf blotch of wheat, foliar fungicide treatment, one day protectant (1DP) or three day curative (3DC)
Type: in vivo, Septoria tritici on wheat plants (variety Yuma)
Details: Zymoseptoria tritici, rating of percent disease control
[1] = 24 h, one day protectant, read-out: SETTTR 1DP 25 ppm
[2] = 24 h, one day protectant, read-out: SEPTTR 1DP 100 ppm
[3] = 72 h, three day curative, read-out: SEPTTR 3DC 25 ppm
[4] = 72 h, three day curative, read-out: SEPTTR 3DC 100 ppm

| Structure (SMILES) | pest or weed control at 25 ppm [1] | pest or weed control at 100 ppm [2] | pest or weed control at 25 ppm [3] | pest or weed control at 100 ppm [4] |
| --- | --- | --- | --- | --- |
| Nc1nc(OS(=O)(=O)c2ccc(Cl)cc2)ncc1F [Compound 611] | 76 to 100% | 76 to 100% | 76 to 100% | 76 to 100% |
| N#Cc1cccc(COc2ncc(F)c(NSc3ccccc3[N+](=O)[O-])n2)c1 [Compound 612] | 76 to 100% | 76 to 100% | 76 to 100% | 76 to 100% |
| Cc1ccc(COc2ncc(F)c(NC(=O)OCc3ccccc3)n2)cc1 [Compound 613] | 76 to 100% | 76 to 100% | 76 to 100% | 76 to 100% |
| CC(C)OCNc1nc(OCc2ccc(F)cc2)ncc1F [Compound 614] | 76 to 100% | 76 to 100% | 76 to 100% | 76 to 100% |
| CC(=O)Nc1nc(O/N=C(\C)c2ccccc2)ncc1F [Compound 616] | 76 to 100% | 76 to 100% | 76 to 100% | 76 to 100% |
| Cc1ccc(C(C)C)cc1C(C)Oc1ncc(F)c(N)n1 (stereo not drawn) [Compound 617] | 76 to 100% | 76 to 100% | 76 to 100% | 76 to 100% |
| COc1cc(COc2ncc(F)c(N)n2)cc(OC)c1 [Compound 623] | 76 to 100% | 76 to 100% | 51 to 75% | 76 to 100% |
| CC(=O)Nc1nc(OCCc2ccc(Cl)cc2)ncc1F [Compound 624] | 51 to 75% | 76 to 100% | 51 to 75% | 76 to 100% |
| CSCCOc1ncc(F)c(N)n1 [Compound 625] | 0 to 25% | 26 to 50% | 0 to 25% | 26 to 50% |
| Nc1nc(OCc2nccs2)ncc1F [Compound 628] | 26 to 50% | 76 to 100% | 51 to 75% | 76 to 100% |
| Nc1nc(OCc2ccc(SC(F)(F)F)cc2)ncc1F [Compound 632] | 76 to 100% | 76 to 100% | 76 to 100% | 76 to 100% |
| CCOC(=O)Nc1nc(OCc2cccc(F)c2)ncc1F [Compound 633] | 76 to 100% | 76 to 100% | 76 to 100% | 76 to 100% |
| CN(C)/C=N/c1nc(OC(=O)OCC(Cl)(Cl)Cl)ncc1F [Compound 634] | 76 to 100% | 76 to 100% | 76 to 100% | 76 to 100% |
| COc1ccc(C(=O)Oc2ncc(F)c(/N=C/N(C)C)n2)cc1 [Compound 636] | 76 to 100% | 76 to 100% | 76 to 100% | 76 to 100% |
| Nc1nc(OCc2ccc(CO)cc2)ncc1F [Compound 637] | 76 to 100% | 76 to 100% | 76 to 100% | 76 to 100% |
| COc1cccc(COc2ncc(F)c(NCOCc3ccccc3)n2)c1 [Compound 638] | 51 to 75% | 76 to 100% | 0 to 25% | 51 to 75% |
| COc1cccc(COc2ncc(F)c(NC(=S)Nc3ccccc3F)n2)c1 [Compound 639] | 76 to 100% | 76 to 100% | 51 to 75% | 76 to 100% |
| N#C/C(=N\Oc1ncc(F)c(N)n1)c1ccccc1 [Compound 640] | 76 to 100% | 76 to 100% | 76 to 100% | 76 to 100% |
| Cc1ccccc1C(C)Oc1ncc(F)c(/N=C/N(C)C)n1 (stereo not drawn) [Compound 643] | 76 to 100% | 76 to 100% | 76 to 100% | 76 to 100% |
| Nc1nc(OCc2ccc(Cl)nc2)ncc1F [Compound 644] | 76 to 100% | 76 to 100% | 76 to 100% | 76 to 100% |
| COc1ccc(CCOc2ncc(F)c(N)n2)cc1 [Compound 645] | 26 to 50% | 76 to 100% | 0 to 25% | 51 to 75% |
| O=CNc1nc(OS(=O)(=O)c2ccccc2)ncc1F [Compound 646] | 51 to 75% | 76 to 100% | 76 to 100% | 76 to 100% |
| C=CCOC(=O)Oc1ncc(F)c(/N=C/N(C)C)n1 [Compound 647] | 76 to 100% | 76 to 100% | 76 to 100% | 76 to 100% |

| Structure (SMILES) | pest or weed control at 25 ppm [1] | pest or weed control at 100 ppm [2] | pest or weed control at 25 ppm [3] | pest or weed control at 100 ppm [4] |
| --- | --- | --- | --- | --- |
| Nc1nc(OCc2ccc(OCc3ccc(F)cc3)cc2)ncc1F [Compound 648] | 76 to 100% | 76 to 100% | 76 to 100% | 76 to 100% |
| CCCCOc1cc(COc2ncc(F)c(N)n2)ccc1OC [Compound 650] | 76 to 100% | 76 to 100% | 76 to 100% | 76 to 100% |
| COc1cccc(COc2ncc(F)c(NOC3CCCCO3)n2)c1 (stereo not drawn) [Compound 652] | 0 to 25% | 51 to 75% | 0 to 25% | 76 to 100% |
| C=CCCOc1ncc(F)c(N)n1 [Compound 653] | 0 to 25% | 0 to 25% | 26 to 50% | 76 to 100% |
| CCOCCOc1cccc(COc2ncc(F)c(NSc3ccccc3[N+](=O)[O-])n2)c1 [Compound 655] | 51 to 75% | 76 to 100% | 51 to 75% | 26 to 50% |
| CC[Si](CC)(CC)Nc1nc(OCc2ccccc2)ncc1F [Compound 656] | 76 to 100% | 76 to 100% | 76 to 100% | 76 to 100% |
| CCCCCCOc1ncc(F)c(N[Si](CC)(CC)CC)n1 [Compound 658] | 0 to 25% | 51 to 75% | 0 to 25% | 51 to 75% |
| COc1ccc(S(=O)(=O)Oc2ncc(F)c(N)n2)cc1 [Compound 660] | 76 to 100% | 76 to 100% | 26 to 50% | 0 to 25% |
| O=[N+]([O-])c1ccccc1SNc1nc(OCc2ccc(F)cc2F)ncc1F [Compound 662] | 0 to 25% | 76 to 100% | 26 to 50% | 26 to 50% |
| COc1ccc(COc2ncc(F)c(/N=C/N(C)C)n2)cc1F [Compound 663] | 76 to 100% | 76 to 100% | 76 to 100% | 76 to 100% |
| CCc1ccccc1NNc1nc(OCc2ccc(F)cc2)ncc1F [Compound 667] | 0 to 25% | 76 to 100% | 0 to 25% | 76 to 100% |
| COCCOC(=O)Nc1nc(OCc2cccc(C#N)c2)ncc1F [Compound 668] | 26 to 50% | 76 to 100% | 76 to 100% | 76 to 100% |
| CN(C)/C=N/c1nc(OC(=O)Oc2ccccc2)ncc1F [Compound 669] | 76 to 100% | 76 to 100% | 76 to 100% | 76 to 100% |
| Cc1ccc(COc2ncc(F)c(NC(=S)NCc3ccccc3F)n2)cc1 [Compound 670] | 51 to 75% | 76 to 100% | 51 to 75% | 76 to 100% |
| Cc1ccc(S(=O)(=O)Oc2ncc(F)c(N)n2)cc1 [Compound 671] | 76 to 100% | 76 to 100% | 76 to 100% | 76 to 100% |
| O=C(CCl)Nc1nc(OCc2ccc(F)cc2)ncc1F [Compound 672] | 76 to 100% | 76 to 100% | 76 to 100% | 76 to 100% |
| CSc1ccc(COc2ncc(F)c(N)n2)cc1 [Compound 673] | 76 to 100% | 76 to 100% | 76 to 100% | 76 to 100% |
| CC[Si](CC)(CC)Nc1nc(OC(C)c2ccc(F)cc2)ncc1F (stereo not drawn) [Compound 674] | 76 to 100% | 76 to 100% | 76 to 100% | 76 to 100% |
| CCOCNc1nc(OCc2ccc(C)cc2)ncc1F [Compound 675] | 76 to 100% | 76 to 100% | 76 to 100% | 76 to 100% |
| COc1ccccc1COc1ncc(F)c(NC(=O)c2ccccc2)n1 [Compound 676] | 26 to 50% | 76 to 100% | 0 to 25% | 0 to 25% |
| OCNc1nc(OCc2ccccc2)ncc1F [Compound 677] | 76 to 100% | 76 to 100% | 76 to 100% | 76 to 100% |
| CCCNC(=S)Nc1nc(OCc2ccccc2)ncc1F [Compound 678] | 0 to 25% | 76 to 100% | 26 to 50% | 76 to 100% |

— patent US9204653B2, “5-fluoro pyrimidine derivatives” (DOW AGROSCIENCES LLC, priority 2008, dated 2015)
